Results on 16 compounds are retold here after patent US9642831B2, “Substituted chromanes and method of use” (AbbVie S.á.r.l., priority 2014, dated 2017).

This experiment has as its target F508delCFTR (Homo sapiens, UniProt P13569, DEL508-508). As to the kind of experiment: Cell Surface Expression-Horse Radish Peroxidase (CSE-HRP) assay. It is filed as cell-based. The arrangement: expressed in transfected cells; host or cells: CFBE41o- human lung derived epithelial cell line, doxycycline-inducible. The settings on record: CFBE4lo-F508delCFTR-HRP cells; for EC50: 18-24 hours at 33° C., 8-point curve, highest concentration 20 μM, luminescence readout; for Emax: maximum % activity at any tested concentration, normalized to on-plate positive control (3 μM Example 1). The text has this:
Cell Surface Expression-Horse Radish Peroxidase (CSE-HRP) Assay:
A cellular assay for measuring the F508delCFTR cell surface expression after correction with test compounds was developed in human lung derived epithelial cell line (CFBE4lo-) (Veit G et al, (2012) Mol Biol Cell. 23(21): 4188-4202). This was achieved by expressing the F508delCFTR mutation along with a horseradish peroxidase (HRP) in the fourth exofacial loop and then measuring the HRP activity using luminescence readout from these cells, CFBE4lo-F508delCFTR-HRP, that were incubated overnight with the test corrector compounds. Briefly, for this primary assay, the CFBE4lo-F508delCFTR-HRP cells were plated in 384-well plates (Greiner Bio-one; Cat 781080) at 4,000 cells/well along with 0.5 μg/mL doxycycline to induce the F508delCFTR-HRP expression and further incubated at 37° C., 5% CO2 for 72 hours. The test compounds were then added at the required concentrations and further incubated for 18-24 hours at 33° C. The highest concentration tested was 20 μM with an 8-point concentration response curve using a 3-fold dilution. Three replicate plates were run to determine one EC50. All plates contained negative controls (dimethyl sulfoxide, DMSO) and positive controls (3 μM of 3-[(2R,4R)-4-({[1-(2,2-difluoro-1,3-benzodioxol-5-yl)cyclopropyl]carbonyl}amino)-7-methoxy-3,4-dihydro-2H-chromen-2-yl]benzoic acid) as well as on-plate concentration response of the positive control. Post incubation, the plates were washed 5× times with Dulbecco's phosphate buffered saline (DPBS), followed by the addition of the HRP substrate, luminol (50 μL), and measuring the HRP activity using luminescence readout on EnVision® Multilabel Plate Reader (Perkin Elmer; product number 2104-0010). The raw counts from the experiment are analyzed using Accelrys® Assay Explorer v3.3.
Z′ greater than 0.5 was used as passing quality control criteria for the plates.
The Z′ is defined as: 1−[3*SDPositive Control+3*SDNegative Control/Absolute(MeanPositive Control−MeanNegative Control)] wherein “SD” is standard deviation.
The % activity measured at each of the 8 test concentrations of the test compound was normalized to the on-plate positive control using the following formula: % activity=[(test compound response−DMSO response)/(positive control response−DMSO response)]*100
The maximum % activity achieved for the test compound at any tested concentration is presented in Table 1 along with the EC50 calculated using the following general sigmoidal curve with variable Hill slope equation (described as Model 42 in the Accelrys® Assay Explorer v3.3 software): y=(a−d)/(1+(x/c)^b)+d
General sigmoidal curve with concentration, response, top, bottom, EC50 and Hill slope.
This model describes a sigmoidal curve with an adjustable baseline, a. The equation can be used to fit curves where response is either increasing or decreasing with respect to the independent variable, “x”.
“x” is a concentration of drug under test.
“a” is the maximum response, and “d” is the minimum response
“c” is the inflection point (EC50) for the curve. That is, “y” is halfway between the lower and upper asymptotes when x=c.
“b” is the slope-factor or Hill coefficient. The sign of b is positive when the response increases with increasing dose and is negative when the response decreases with increasing dose (inhibition).

As usually defined, the EC50 is the concentration at which the effect is half-maximal. As a reminder, the Emax is the greatest response seen or fitted, relative to the assay's reference.

Chain of F508delCFTR (P13569 with tags, fused parts or gaps DEL508-508): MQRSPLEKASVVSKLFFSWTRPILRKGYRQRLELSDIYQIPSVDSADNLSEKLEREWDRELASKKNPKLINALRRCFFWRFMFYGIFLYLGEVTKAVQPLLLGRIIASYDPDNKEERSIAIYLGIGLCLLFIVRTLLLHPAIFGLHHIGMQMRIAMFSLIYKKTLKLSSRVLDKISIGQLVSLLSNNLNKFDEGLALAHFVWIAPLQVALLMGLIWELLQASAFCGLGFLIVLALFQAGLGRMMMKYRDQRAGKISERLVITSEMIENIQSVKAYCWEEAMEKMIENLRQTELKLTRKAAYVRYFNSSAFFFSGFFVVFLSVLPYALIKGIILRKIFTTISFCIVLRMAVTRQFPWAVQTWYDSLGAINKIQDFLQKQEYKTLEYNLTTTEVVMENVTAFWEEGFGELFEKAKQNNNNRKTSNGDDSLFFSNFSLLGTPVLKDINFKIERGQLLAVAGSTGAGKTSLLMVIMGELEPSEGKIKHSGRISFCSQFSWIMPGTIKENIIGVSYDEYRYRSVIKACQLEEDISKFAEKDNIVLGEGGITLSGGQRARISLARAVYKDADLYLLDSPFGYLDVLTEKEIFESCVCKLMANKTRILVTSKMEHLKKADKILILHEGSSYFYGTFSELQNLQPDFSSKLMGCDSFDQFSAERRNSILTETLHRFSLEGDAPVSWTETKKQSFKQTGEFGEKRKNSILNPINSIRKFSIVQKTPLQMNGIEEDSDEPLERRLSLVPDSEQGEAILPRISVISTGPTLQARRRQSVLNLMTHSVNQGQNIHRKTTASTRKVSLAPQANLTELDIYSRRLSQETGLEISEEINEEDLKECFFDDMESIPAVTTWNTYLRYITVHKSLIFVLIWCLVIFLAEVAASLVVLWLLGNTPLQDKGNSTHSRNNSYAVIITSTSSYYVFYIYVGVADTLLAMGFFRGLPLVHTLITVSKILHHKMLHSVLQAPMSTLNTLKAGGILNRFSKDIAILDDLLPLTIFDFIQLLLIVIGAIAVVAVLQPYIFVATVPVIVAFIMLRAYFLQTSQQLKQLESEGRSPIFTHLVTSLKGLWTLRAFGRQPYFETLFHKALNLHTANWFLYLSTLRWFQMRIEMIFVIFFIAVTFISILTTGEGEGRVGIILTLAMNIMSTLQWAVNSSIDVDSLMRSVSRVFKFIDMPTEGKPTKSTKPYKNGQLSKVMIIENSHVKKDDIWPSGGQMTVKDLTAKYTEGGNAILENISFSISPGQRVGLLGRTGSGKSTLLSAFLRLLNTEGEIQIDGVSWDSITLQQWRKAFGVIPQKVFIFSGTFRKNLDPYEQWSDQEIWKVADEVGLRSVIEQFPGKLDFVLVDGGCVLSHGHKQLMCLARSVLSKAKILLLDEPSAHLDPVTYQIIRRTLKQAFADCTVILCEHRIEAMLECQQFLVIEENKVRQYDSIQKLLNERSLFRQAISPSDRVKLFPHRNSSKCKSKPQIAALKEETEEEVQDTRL

As to `COC(=O)c1cccc(C2CC(NC(=O)C3(c4ccc5c(c4)OC(F)(F)O5)CC3)c3ccc(OC)nc3O2)c1` (mixture of isomers) [Example 37, methyl 3-[4-({[1-(2,2-difluoro-1,3-benzodioxol-5-yl)cyclopropyl]carbonyl}amino)-7-methoxy-3,4-dihydro-2H-pyrano[2,3-b]pyridin-2-yl]benzoate], the half-maximal effective concentration (EC50) is 3.05 µM and the Emax worked out at 88%.

As to `COc1ccc2c(c1)OC(C1CN(C(=O)OC(C)(C)C)C1)CC2NC(=O)C1(c2ccc3c(c2)OC(F)(F)O3)CC1` (mixture of isomers) [Example 115, tert-butyl 3-[4-({[1-(2,2-difluoro-1,3-benzodioxol-5-yl)cyclopropyl]carbonyl}amino)-7-methoxy-3,4-dihydro-2H-chromen-2-yl]azetidine-1-carboxylate], the EC50 is 1.94 µM and the Emax came out at 77%.

`COc1ccc2c(c1)OC(C1CN(S(C)(=O)=O)C1)CC2NC(=O)C1(c2ccc3c(c2)OC(F)(F)O3)CC1` (mixture of isomers) [Example 117, 1-(2,2-difluoro-1,3-benzodioxol-5-yl)-N-{7-methoxy-2-[1-(methylsulfonyl)azetidin-3-yl]-3,4-dihydro-2H-chromen-4-yl}cyclopropanecarboxamide] gave an EC50 of 6.01 µM and an Emax of 82%.

Turning to `COc1ccc2c(c1)O[C@@H](c1cccnc1)C[C@@H]2NC(=O)C1(c2ccc3c(c2)OC(F)(F)O3)CC1` (racemic) [Example 22, rac-1-(2,2-difluoro-1,3-benzodioxol-5-yl)-N-[(2R,4S)-7-methoxy-2-(pyridin-3-yl)-3,4-dihydro-2H-chromen-4-yl]cyclopropanecarboxamide], the EC50 was found to be 1.77 µM and the Emax worked out at 109%.

The compound `COc1ccc2c(n1)O[C@@H](c1cccc(C(=O)O)c1)C[C@@H]2NC(=O)C1(c2ccc3c(c2)OC(F)(F)O3)CC1` (racemic) [Example 29, rac-3-[(2R,4S)-4-({[1-(2,2-difluoro-1,3-benzodioxol-5-yl)cyclopropyl]carbonyl}amino)-7-methoxy-3,4-dihydro-2H-pyrano[2,3-b]pyridin-2-yl]benzoic acid] came in with a concentration for a half-maximal effect (EC50) of 5.71 µM and an Emax of 106%.

Turning to `COC(=O)c1cccc([C@H]2C[C@@H](NC(=O)C3(c4ccc5c(c4)OC(F)(F)O5)CC3)c3ccc(OC)nc3O2)c1` (racemic) [Example 30, methyl rac-3-[(2R,4R)-4-({[1-(2,2-difluoro-1,3-benzodioxol-5-yl)cyclopropyl]carbonyl}amino)-7-methoxy-3,4-dihydro-2H-pyrano[2,3-b]pyridin-2-yl]benzoate], the EC50 turned out to be 1.88 µM and the maximal response (Emax) is 78%.

The compound `O=C(O)c1cccc([C@H]2C[C@@H](NC(=O)C3(c4ccc5c(c4)OC(F)(F)O5)CC3)c3cccnc3O2)c1` (racemic) [Example 31, rac-3-[(2R,4R)-4-({[1-(2,2-difluoro-1,3-benzodioxol-5-yl)cyclopropyl]carbonyl}amino)-3,4-dihydro-2H-pyrano[2,3-b]pyridin-2-yl]benzoic acid] showed a concentration for a half-maximal effect (EC50) of 10.7 µM and a maximal response (Emax) of 21%.

Regarding `O=C(O)c1cccc([C@H]2C[C@H](NC(=O)C3(c4ccc5c(c4)OC(F)(F)O5)CC3)c3cccnc3O2)c1` (racemic) [Example 32, rac-3-[(2R,4S)-4-({[1-(2,2-difluoro-1,3-benzodioxol-5-yl)cyclopropyl]carbonyl}amino)-3,4-dihydro-2H-pyrano[2,3-b]pyridin-2-yl]benzoic acid], the EC50 was ≥ 20 µM and the Emax was determined as 16%.

Turning to `COC(=O)c1cccc([C@H]2C[C@@H](NC(=O)C3(c4ccc5c(c4)OC(F)(F)O5)CC3)c3cccnc3O2)c1` (racemic) [Example 33, rac-methyl 3-[(2R,4R)-4-({[1-(2,2-difluoro-1,3-benzodioxol-5-yl)cyclopropyl]carbonyl}amino)-3,4-dihydro-2H-pyrano[2,3-b]pyridin-2-yl]benzoate], the EC50 was 7.65 µM and the maximal effect (Emax) was 38%.

Regarding `COC(=O)c1cccc([C@H]2C[C@H](NC(=O)C3(c4ccc5c(c4)OC(F)(F)O5)CC3)c3cccnc3O2)c1` (racemic) [Example 34, rac-methyl 3-[(2R,4S)-4-({[1-(2,2-difluoro-1,3-benzodioxol-5-yl)cyclopropyl]carbonyl}amino)-3,4-dihydro-2H-pyrano[2,3-b]pyridin-2-yl]benzoate], the EC50 is ≥ 20 µM and the Emax amounted to 15%.

For the compound `COc1ccc2c(c1)O[C@@H](C1CC1)C[C@H]2NC(=O)C1(c2ccc3c(c2)OC(F)(F)O3)CC1` (racemic) [Example 40, rac-N-[(2R,4R)-2-cyclopropyl-7-methoxy-3,4-dihydro-2H-chromen-4-yl]-1-(2,2-difluoro-1,3-benzodioxol-5-yl)cyclopropanecarboxamide], the EC50 worked out at 2.68 µM and the Emax was found to be 107%.

For the compound `COc1ccc2c(c1)O[C@@H](C1CC1)C[C@@H]2NC(=O)C1(c2ccc3c(c2)OC(F)(F)O3)CC1` (racemic) [Example 41, rac-N-[(2R,4S)-2-cyclopropyl-7-methoxy-3,4-dihydro-2H-chromen-4-yl]-1-(2,2-difluoro-3-benzodioxol-5-yl)cyclopropanecarboxamide], a half-maximal response (EC50) required 2.58 µM and the maximal response (Emax) turned out to be 73%.

Regarding `COc1ccc2c(c1)O[C@@H](c1cccnc1)C[C@H]2NC(=O)C1(c2ccc3c(c2)OC(F)(F)O3)CC1` (racemic) [Example 57, rac-1-(2,2-difluoro-1,3-benzodioxol-5-yl)-N-[(2R,4R)-7-methoxy-2-(pyridin-3-yl)-3,4-dihydro-2H-chromen-4-yl]cyclopropanecarboxamide], the midpoint of the response, the EC50, lay at 1.69 µM and the Emax amounted to 112%.

Consider `COC(=O)c1cccc([C@H]2C[C@@H](NC(=O)C3(c4ccc5c(c4)OC(F)(F)O5)CC3)c3ccc(Cl)nc3O2)c1` (racemic) [Example 112, methyl rac-3-[(2R,4R)-7-chloro-4-({[1-(2,2-difluoro-1,3-benzodioxol-5-yl)cyclopropyl]carbonyl}amino)-3,4-dihydro-2H-pyrano[2,3-b]pyridin-2-yl]benzoate], for which the EC50 is ≥ 20 µM and the Emax amounted to 5%.

As to `COC(=O)c1cccc([C@H]2C[C@@H](NC(=O)C3(c4ccc5c(c4)OC(F)(F)O5)CC3)c3ccc(F)nc3O2)c1` (racemic) [Example 113, methyl rac-3-[(2R,4R)-4-({[1-(2,2-difluoro-1,3-benzodioxol-5-yl)cyclopropyl]carbonyl}amino)-7-fluoro-3,4-dihydro-2H-pyrano[2,3-b]pyridin-2-yl]benzoate], the response was half-maximal at 3.55 µM (EC50) and the Emax worked out at 49%.

For `O=C(O)c1cccc([C@H]2C[C@@H](NC(=O)C3(c4ccc5c(c4)OC(F)(F)O5)CC3)c3ccc(Cl)nc3O2)c1` (racemic) [Example 114, rac-3-[(2R,4R)-7-chloro-4-({[1-(2,2-difluoro-1,3-benzodioxol-5-yl)cyclopropyl]carbonyl}amino)-3,4-dihydro-2H-pyrano[2,3-b]pyridin-2-yl]benzoic acid], the EC50 amounted to 4.76 µM and the Emax was determined as 61%.
